Columns and labels:
HDFa cells [1] = assay: MTT cytocompatibility assay; assay type: cell-based, Human; conditions: 72 h incubation, concentrations up to 0.1 wt%, absorbance 560 nm, ANOVA, n = 3
Description: For the cytocompatibility assays, HDFa cells were cultivated in DMEM/F12 supplemented with 5% FBS, Glutamax, penicillin/streptomycin 100 IU/mL and incubated at 37°C within an atmosphere of 5% CO2. The RAW cells were cultured in DMEM with 10% FBS, Glutamax, penicillin/streptomycin 100 IU/mL and maintained under the same conditions as the HDFa cells.
To measure the cytocompatibility of lipoyl‐KTTKS, 24 h before the assay HDFa cells were cultivated in 96‐well plates with 1 × 10^4 cells/well with supplemented DMEM/F12. Then, the wells were washed three times with PBS, and cells were incubated for 72 h in media containing different concentrations of lipoyl‐KTTKS. After incubation, the cells were washed again three times with PBS and 100 μL of DMEM/F12 without phenol red + 5 μg/mL of MTT was added to each well. The plate containing cells in media containing MTT was incubated for 4 h inside an incubator at 37°C, protected from the light. After incubation, 100 μL of DMSO was added to each well to solubilize the resulting formazan crystals. The absorbance was measured at 560 nm using an Infinite F50 microplate reader (TECAN, Switzerland).

[2] = tested on: UV-induced collagenase (MMP-1); conditions: cited from earlier work
From the text: (§1) Here, we investigate the structural properties, biocompatibility and collagen‐stimulating activity of a novel peptide amphiphile comprising a conjugate of lipoic acid to pentapeptide KTTKS, termed lipoyl‐KTTKS (Scheme 1).

melanin synthesis = conditions: cited from earlier work
From the text: as §1

tyrosinase = conditions: cited from earlier work
From the text: as §1

[3] = cited from earlier work
From the text: as §1

HDFa cells [4] = assay: Scratch assay of in vitro wound healing; assay type: cell-based, Human; conditions: 0.0062 wt% in DMEM without serum
Description: For the scratch assay, 5 × 10^4 cells into were seeded into 24‐well plates, and cells were allowed to reach confluence. After reaching 90% confluence, a scratch was made in the middle of the well using a 200‐μL pipette tip and cells were incubated at 37°C in an atmosphere 5% CO2. The media used was DMEM without serum for the controls or DMEM without serum + lipoyl‐KTTKS at different concentrations. Pictures were taken periodically using a standard inverted optical microscope with phase contrast filters to monitor cell migration and wound closure.
As a simple in vitro ‘wound healing’ model, scratch assays were performed by creating a scratch in a layer of cells. Images of the confluent cell layer are presented in SI Figure S5. The scratch assay is a simple and affordable procedure consisting of simulating the closure of a skin wound by scratching a monolayer of fibroblasts seeded at high confluence and monitoring how long it takes for the cells to migrate and recover the ‘wound’ [51, 52, 53]. As evident from the images in Figure S5, the recovery of cells incubated with 0.0062 wt% lipoyl‐KTTKS was enhanced, with complete closure of the scratch after 48 h.

[5] = CAC assay with fluorescent probe thioflavin T (ThT); assay type: physicochemical; conditions: ThT fluorescence peak intensity (λem = 448 nm) vs concentration
Description: Before considering biocompatibility and bioactivity of lipoyl‐KTTKS, we examined whether this lipopeptide has a critical aggregation concentration (CAC) above which it forms self‐assembled aggregate structures. Based on our previous work on KTTKS‐lipopeptides, β‐sheet formation of lipoyl‐KTTKS is likely to be favoured. Therefore a CAC assay using the fluorescent probe thioflavin T (ThT) which is sensitive to β‐sheet formation was performed. The ThT fluorescence peak intensity was monitored as a function of concentration, and the results are shown in Figure 1 and indicate a CAC value (0.5 ± 0.1) wt% from the intersection of the straight lines at low and high concentrations, or (0.67 ± 0.06) wt% as the midpoint of a fitted Boltzmann‐type sigmoidal function: I=A2+A1−A2/1+expc−c1/2/σ
FIGURE 1 CAC assay plotting fluorescence intensity of ThT (λ em = 448 nm) as a function of concentration. […] The black lines provide a linear intercept estimate of CAC.
Here, I is the fluorescence intensity (at λ em = 448 nm), A 1 and A 2 are constants, c is the lipopeptide concentration, c 1/2 is the mid‐point concentration, and σ is the width parameter.

[6] = SANS form factor fits (core-shell cylinder); assay type: physicochemical; conditions: 3 wt% in D2O, 25°C, long cylindrical shell form factor; note: values in Å
Description: Measurements were performed using the LOQ instrument at ISIS Neutron and Muon Source, Oxfordshire, UK. LOQ operates in time‐of‐flight mode, with a wavelength range from 2.7 to 10.5 Å. Two detectors recorded simultaneously small and wide scattering merged in a typical range of wavenumbers q = 0.006 Å^−1 to 1.2 Å^−1. The main detector was fixed at 4 m from the sample, and the size of the beam was 8 mm diameter at the sample position. The samples were placed in quartz cuvettes and arranged on a multislot sample changer with temperature controlled by a thermal bath at 25°C. The background was subtracted and the scattering intensity normalized to the absolute scale cross calibrating with a polystyrene standard. Data reduction was performed using Mantid.
Cryo‐TEM was used to probe potential aggregation in solution above the CAC (3 wt% aqueous solution). […] The presence of such structures was also confirmed by SAXS and SANS data (Figure 3), which reveal form factor features that can be fitted using a core‐shell cylinder form factor, consistent with extended fibril structures. The cylinder radius is 25 Å, which is approximately equal to the estimated length of the molecule considering the lipid chain plus a pentapeptide in a β‐sheet conformation. […]

lipoyl‐KTTKS [peptide amphiphile comprising a conjugate of lipoic acid to pentapeptide KTTKS]
Cytotoxicity (cell viability, MTT) (HDFa cells [1]): does not present any statistically significant cytotoxicity | Effect on UV-induced collagenase (MMP-1) activity [2]: inhibits | Effect on melanin synthesis (melanin synthesis): inhibits | Effect on tyrosinase activity (tyrosinase): inhibits | Cytocompatibility [3]: good cytocompatibility | Time to first signs of recovery of the scratch (HDFa cells [4]): 12 h | Time to complete closure of the scratch (HDFa cells [4]; control closed only after 72 h): 48 h | CAC (critical aggregation concentration) from intersection of straight lines ([5]; intersection of straight lines at low and high concentrations): 0.5 ± 0.1 wt% | CAC as midpoint of fitted Boltzmann-type sigmoidal function ([5]; midpoint c1/2 of sigmoidal fit): 0.67 ± 0.06 wt% | L length [6]: 800 Å | t shell thickness [6]: 9.10 Å

— publication PMC11794677, “Self‐Assembly of a Conjugate of Lipoic Acid With a Collagen‐Stimulating Pentapeptide Showing Cytocompatibility and Wound Healing Properties, and Chemical and Photolytic Disassembly” (Journal of Peptide Science, 2025)
